Laboratory results published in paper PMC6407579, “New flavonoid – N,N-dibenzyl(N-methyl)amine hybrids: Multi-target-directed agents for Alzheimer´s disease endowed with neurogenic properties” (Journal of Enzyme Inhibition and Medicinal Chemistry, 2019).
Where “and” joins values, the source holds several entries; their conditions need not be identical. Equal entries are not always repeated. Where two headings read alike, the source gives them in different places.

Columns and labels:
[1] = target: T1, human recombinant AChE (hAChE) (Homo sapiens, UniProt P22303); assay: biochemical
T1 construct: purchased Sigma Chemical Co
Experimental: The Ellman method was followed, using human recombinant AChE and BuChE from human serum. The assay solution consisted of 0.1 M phosphate buffer pH 8.0, 400 μM 5,5´-dithiobis(2-nitrobenzoic acid) (DTNB, Ellman’s reagent), 0.05 U/mL hAChE (Sigma Chemical Co.) or 0.024 U/mL hBuChE (Sigma Chemical Co.), and 800 μM acetylthiocholine iodide, or 500 μM butyrylthiocholine as the substrate of the enzymatic reaction, respectively. The compounds tested were added to the assay solution and preincubated with the enzyme for 5 min at 30 °C. After that period, the substrate was added.

recombinant hMAO-B = target: T2, recombinant hMAO-B (Homo sapiens, UniProt P27338); assay: biochemical; format: biochemical; details: mean ± SEM (n = 3); 100 µM highest concentration tested
T2 sequence (P27338 1-520): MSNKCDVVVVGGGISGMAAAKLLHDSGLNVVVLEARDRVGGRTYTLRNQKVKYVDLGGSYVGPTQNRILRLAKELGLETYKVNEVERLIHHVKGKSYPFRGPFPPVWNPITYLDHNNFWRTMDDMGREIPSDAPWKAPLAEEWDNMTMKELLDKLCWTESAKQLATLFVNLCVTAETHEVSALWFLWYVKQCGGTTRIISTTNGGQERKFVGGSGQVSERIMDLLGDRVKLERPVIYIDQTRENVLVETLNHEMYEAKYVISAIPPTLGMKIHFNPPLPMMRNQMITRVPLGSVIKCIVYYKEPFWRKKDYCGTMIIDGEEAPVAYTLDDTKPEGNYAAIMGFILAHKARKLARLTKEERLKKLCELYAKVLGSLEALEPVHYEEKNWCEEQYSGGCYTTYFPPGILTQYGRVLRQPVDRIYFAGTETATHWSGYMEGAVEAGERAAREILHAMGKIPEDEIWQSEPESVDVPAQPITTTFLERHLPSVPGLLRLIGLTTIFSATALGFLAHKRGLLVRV

[2] = In vitro blood-brain barrier permeation assay (PAMPA-BBB); format: in vitro ADME; details: pig, pH 7.4, porcine brain lipid, PBS:ethanol (70:30), 25 °C, read-out: PAMPA-BBB permeability in the CNS (Pe)
Experimental: Prediction of the brain penetration was evaluated using a parallel artificial membrane permeation assay (PAMPA-BBB), in a similar manner as previously described[36]^,[46]^,[51–53]. Pipetting was performed with a semi-automatic pipettor (CyBi®-SELMA) and UV reading with a microplate spectrophotometer (Multiskan Spectrum, Thermo Electron Co.). Commercial drugs, phosphate buffered saline solution at pH 7.4 (PBS), and dodecane were purchased from Sigma, Aldrich, Acros, and Fluka. Millex filter units (PVDF membrane, diameter 25 mm, pore size 0.45 μm) were acquired from Millipore. The porcine brain lipid (PBL) was obtained from Avanti Polar Lipids. The donor microplate was a 96-well filter plate (PVDF membrane, pore size 0.45 μm) and the acceptor microplate was an indented 96-well plate, both from Millipore. The acceptor 96-well microplate was filled with 200 μL of PBS: ethanol (70:30) and the filter surface of the donor microplate was impregnated with 5 μL of porcine brain lipid (PBL) in dodecane (20 mg mL^−1). Compounds were dissolved in PBS: ethanol (70:30) at 100 μg mL^−1, filtered through a Millex filter, and then added to the donor wells (200 μL). The donor filter plate was carefully put on the acceptor plate to form a sandwich, which was left undisturbed for 120 min at 25 °C. After incubation, the donor plate is carefully removed and the concentration of compounds in the acceptor wells was determined by UV-Vis spectroscopy. Every sample is analysed at five wavelengths, in four wells and at least in three independent runs, and the results are given as the mean ± standard deviation. In each experiment, 11 quality control standards of known BBB permeability were included to validate and normalise the analysis set.
To check if new compounds could be able to reach their CNS-targets, we used the in vitro parallel artificial membrane permeability assay for the blood-brain barrier (PAMPA-BBB) described by Di et al.[87], and partially modified by us for testing molecules with limited water-solubility[36]^,[46]^,[51–53]. The passive CNS-permeation of new compounds 1–13 through a lipid extract of porcine brain was measured at room temperature. In each experiment, 11 commercial drugs of known brain permeability were also tested and their permeability values normalised to the reported PAMPA-BBB data. […].

σ1R = target: T3, σ1R (Cavia porcellus, UniProt Q60492); assay: Sigma-1 receptor binding, [3H]-(+)-pentazocine competition; parameters: species or system guinea pig
T3 construct: the thawed membrane preparation of guinea pig brain cortex; from tissue; host or cells: guinea pig brain cortex membranes

σ2R = target: T4, σ2R (Rattus norvegicus, UniProt Q5U3Y7); assay: Sigma-2 receptor binding, [3H]-DTG competition
T4 construct: 150 µg of rat liver homogenate were incubated; from tissue; host or cells: rat liver homogenate
T4 sequence (Q5U3Y7 1-176): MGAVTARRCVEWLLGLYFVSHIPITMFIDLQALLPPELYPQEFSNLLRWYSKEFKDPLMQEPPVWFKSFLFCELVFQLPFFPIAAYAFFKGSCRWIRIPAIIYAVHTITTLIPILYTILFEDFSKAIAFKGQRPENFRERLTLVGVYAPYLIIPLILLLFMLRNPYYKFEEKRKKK

[3] = mean ± SEM (n = 3), read-out: hAChE IC50

T3 sequence (Q60492 whole entry): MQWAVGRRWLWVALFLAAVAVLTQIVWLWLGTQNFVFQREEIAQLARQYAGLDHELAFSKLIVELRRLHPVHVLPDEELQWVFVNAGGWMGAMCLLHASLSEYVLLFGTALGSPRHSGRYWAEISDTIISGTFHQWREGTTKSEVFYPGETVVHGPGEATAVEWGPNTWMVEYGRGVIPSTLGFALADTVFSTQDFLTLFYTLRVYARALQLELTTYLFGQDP
T1 sequence (P22303 32-614): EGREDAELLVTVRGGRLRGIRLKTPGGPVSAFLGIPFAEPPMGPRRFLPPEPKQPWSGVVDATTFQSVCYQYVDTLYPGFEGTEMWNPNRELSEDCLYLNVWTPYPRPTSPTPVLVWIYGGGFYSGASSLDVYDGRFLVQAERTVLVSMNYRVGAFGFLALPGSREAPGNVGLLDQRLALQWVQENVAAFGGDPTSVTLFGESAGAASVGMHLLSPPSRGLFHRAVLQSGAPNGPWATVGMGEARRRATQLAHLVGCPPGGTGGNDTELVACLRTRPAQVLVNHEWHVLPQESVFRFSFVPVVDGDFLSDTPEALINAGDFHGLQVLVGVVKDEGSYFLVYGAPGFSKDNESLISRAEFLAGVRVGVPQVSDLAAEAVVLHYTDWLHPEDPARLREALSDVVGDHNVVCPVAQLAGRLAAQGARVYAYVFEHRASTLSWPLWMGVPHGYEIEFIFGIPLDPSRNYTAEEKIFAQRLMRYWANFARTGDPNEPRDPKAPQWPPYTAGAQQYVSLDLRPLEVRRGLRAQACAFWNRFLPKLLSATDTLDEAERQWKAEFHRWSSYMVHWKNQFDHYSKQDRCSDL

Compound: COc1ccc2oc(C(=O)Nc3ccc(CN(C)Cc4ccccc4)cc3)cc(=O)c2c1 [Compound 1, N-(4-((Benzyl(methyl)amino)methyl)phenyl)-6-methoxy-4-oxo-4H-chromene-2-carboxamide]
- IC50 [1, 3]: 1.5 ± 0.2 µM
- IC50 (recombinant hMAO-B): 59.8 ± 3.7 µM
- Papp at 120 min, 100 μg mL^−1 [2]: 17.1 ± 1.5 ×10⁻⁶ cm/s
- Ki (σ1R): 0.48 ± 0.05 µM
- Selectivity vs. σ1R (Kiσ2R/Kiσ1R) (σ1R): 3.7
- Ki (σ2R): 1.78 ± 0.43 µM

Compound: CN(Cc1ccccc1)Cc1ccc(NC(=O)c2cc(=O)c3cc(O)ccc3o2)cc1 [Compound 2, N-(4-((Benzyl(methyl)amino)methyl)phenyl)-6-hydroxy-4-oxo-4H-chromene-2-carboxamide]
- IC50 [1, 3]: 1.3 ± 0.3 µM
- IC50 (recombinant hMAO-B): 9.7 ± 1.6 µM
- Papp at 120 min, 100 μg mL^−1 [2]: 6.8 ± 0.4 ×10⁻⁶ cm/s
- Ki (σ1R): 0.38 ± 0.05 µM
- Selectivity vs. σ1R (Kiσ2R/Kiσ1R) (σ1R): 4.2
- Ki (σ2R): 1.6 ± 0.28 µM

Compound: COc1cc2oc(C(=O)Nc3ccc(CN(C)Cc4ccccc4)cc3)cc(=O)c2cc1OC [Compound 5, N-(4-((Benzyl(methyl)amino)methyl)phenyl)-6,7-dimethoxy-4-oxo-4H-chromene-2-carboxamide]
- IC50 ([1]; hAChE IC50, mean ± SEM (n = 3)): 0.99 µM and 1 µM
- IC50 (recombinant hMAO-B): 8.1 ± 0.4 µM
- Papp at 120 min, 100 μg mL^−1 [2]: 19.1 ± 1.5 ×10⁻⁶ cm/s

Compound: COc1cc2oc(C(=O)Nc3cccc(CN(C)Cc4ccccc4)c3)cc(=O)c2cc1OC [Compound 6, N-(3-((Benzyl(methyl)amino)methyl)phenyl)-6,7-dimethoxy-4-oxo-4H-chromene-2-carboxamide]
- IC50 ([1]; hAChE IC50, mean ± SEM (n = 3)): 4.5 ± 0.8 µM
- IC50 (recombinant hMAO-B): > 100 µM
- Papp at 120 min, 100 μg mL^−1 [2]: 18.8 ± 1.3 ×10⁻⁶ cm/s
- IC50 (σ1R): 0.53 µM and 0.5 µM
- Selectivity vs. σ1R (Kiσ2R/Kiσ1R) (σ1R): 2.5
- Ki (σ1R; guinea pig brain cortex membranes, [3H]-(+)-pentazocine, mean ± SEM, read-out: Ki σ1R): 0.53 ± 0.07 µM
- Ki (σ2R; rat liver homogenate, [3H]-DTG, mean ± SEM, read-out: Ki σ2R): 1.3 ± 0.35 µM
